Measured values reported in publication PMC13586173, “Synthetic cannabinoid receptor agonists inhibit the cardiac voltage-gated potassium channel hERG” (Acta Pharmacologica Sinica, 2026).
pEC50, pIC50: −log10 of the molar value. Like-named read-outs stand apart in the source and are kept apart here.

Tests used:
human CB1 receptor = target: T1, human CB1 receptor (Homo sapiens, UniProt P21554); assay: AequoScreen intracellular calcium release assay, CHO-K1 cells stably expressing CB1; format: cell-based; settings: n ≥ 3 (JWH-030 n = 2); for pEC50: CB1 receptor Potency EC50, normalized to median EC50 of JWH-018; for CB1 receptor Efficacy Emax: normalized to maximum of JWH-018
T1 construct: host or cells: CHO-K1 stably expressing CB1, apoaequorin and Gα16

hERG [1] = settings: cited from earlier work
KV7.1/KCNE1 = KV7.1/KCNE1 (Homo sapiens, UniProt P51787); assay: Automated patch-clamp (APC, population patch), CHO cells stably expressing human KV7.1/KCNE1; format: cell-based; settings: for KV7.1/KCNE1 channel Efficacy (max reduction in Gmax) Gmin: best fit, 1 = no reduction of Gmax, 0 = complete reduction
Procedure: Both hERG and KV7.1/KCNE1 contribute to cardiomyocyte repolarization (Fig. 1g). Inhibition of KV7.1/KCNE1 alone can be proarrhythmic. Moreover, under conditions with impaired hERG function, upregulation of KV7.1/KCNE1 has been proposed to partially compensate for the loss of hERG [38, 39]. […] To assess if SCRAs also affect KV7.1/KCNE1, we used mammalian CHO cells stably expressing human KV7.1/KCNE1. […] At 10 µM, 7 of the SCRAs caused a significant positive shift in V50 (Fig. 5e), with the largest shift induced by MDMB-[…] (ΔV50 = +10.3 ± 1.6 mV).
Automated patch-clamp recordings were performed at 22 °C.
For the KV7.1/KCNE1 voltage ladder protocol (SI Table VII) the solutions were present for 60 s before recording started. KV7.1/KCNE1 cells were kept at a holding voltage of −90 mV, with brief hyperpolarizing steps to −100 mV for 540 ms (to calculate ohmic leakage). […] The time between compound application and the first voltage protocol was 60 s. Time between sweeps was 15 s. The voltage ladder protocol was executed every 220 s.
For Gmax (rel.), N was set to –1. For ΔV50, N was set to 1.

hERG (KV11.1) = hERG (KV11.1) (Homo sapiens, UniProt Q12809); assay: Automated planar patch-clamp (APC, QPatch II 48), voltage-ladder protocol, CHO cells stably expressing human hERG
Excerpt: To assess the effect of a large set of SCRAs on hERG (see SI Table I and SI Fig. S1 for a list of the 36 included SCRAs and corresponding structures), we used the automated planar patch-clamp (APC) technique on mammalian Chinese hamster ovary (CHO) cells stably expressing human hERG. […] We employed a voltage-ladder protocol to obtain information on SCRA effects on the channel’s voltage dependence of activation (V50) and maximal conductance (Gmax) (both determined from Boltzmann fits of the instantaneous tail currents; see Methods for details).
Stably expressing cell lines “CHO-hERG DUO” (here referred to as hERG; gene: KCNH2) and “CHO-KVLQT1/mink” (here referred to as KV7.1/KCNE1; gene: KCNQ1/KCNE1), (B’SYS GmBH, Witterswil, Switzerland) were used to study whole-cell K^+ currents on a QPatch II 48 APC system (Sophion Bioscience A/S, Ballerup, Denmark). Cell culture and passaging were performed in accordance with standard operating procedures. Cells were harvested in serum-free medium with Detachin^TM (Genlantis, CA, USA) immediately prior to experiments. For MPC on transient cell lines, CHO-K1 CCL-61 cells (ATCC, Manassas, VA, USA) were cultured in Ham’s F-12 medium supplemented with 10% fetal bovine serum (FBS) and 100 U/mL penicillin–100 µg/mL streptomycin (Gibco, Thermo Fisher Scientific, Waltham, MA, USA). Transfection was carried out using JetOPTIMUS® reagent (Polyplus, Strasbourg, France) according to the manufacturer’s protocol. Briefly, 80,000 cells were seeded per well in a 12-well plate and transfected with 300 ng of pcDNA3-GFP plasmid, 700 ng of pcDNA3-hERG plasmid with either the wild-type or mutant channels (S624A, S649A, or Y652A), and […] of JetOPTIMUS. After 8 h, cells were detached and reseeded at a density of 30,000 cells per well onto several poly-D-lysine-coated glass coverslips placed in a 12-well plate. For the CB1 receptor activity assay, the AequoScreen® recombinant Chinese hamster ovary (CHO) K1 cell line, stably expressing the human CB1 receptor (ES-110-A), was used (Revvity, Sollentuna, Sweden).
Automated patch-clamp recordings were performed at 22 °C. Freshly harvested cell suspensions (2–3 million cells/mL) were prepared for experiments by the QPatch II 48 automated cell preparation unit. Cells were centrifuged for 150 s at 150 × g and washed twice with the extracellular recording solution. Cells were handled by the integrated pipetting robot and added to the 48 experiment sites on the planar patch-clamp consumable QPlate. Each experiment site contained an individual pair of recording electrodes and a silicon/glass biochip embedded in the flow channels. Single-cell patch recordings (n = 1 is defined as one single-cell patch) and population patch recordings (up to 10 cells per well, n = 1 is defined as one population patch) were performed for hERG and for KV7.1/KCNE1, respectively. Cells were applied, positioned and sealed to the patch holes by a mild suction protocol; whole-cell access was then achieved by a stronger suction pulse.
The intracellular solution contained (in mM): 100 KCl, 4.3 CaCl2, 1.4 MgCl2, 25/10 KOH/EGTA, 24 KF, 10 HEPES, and 4 Mg-ATP (hERG) or 4 Na-ATP (KV7.1/KCNE1). […] The compounds were pre-diluted in DMSO, and the final concentration of DMSO (0.3%) was equal in all recording solutions to control for vehicle effects. The compounds made no contact with plastics following dilution in extracellular solution.
An overview of experimental conditions is provided in SI Table VII, Square voltage pulses in a voltage ladder protocol were used to study current/voltage (I(V)) relationships. Each voltage protocol was first run three times in the presence of vehicle (extracellular solution supplemented with 0.3% DMSO), the 3rd serving as the baseline. Voltage protocols were repeated in the presence of 4 cumulatively rising concentrations of test compound, followed by application of vehicle for recovery.

[2] = rats; cited from earlier work
hERG [3] = settings: cited from earlier work; remark: listed apart in the source
[4] = experimentally observed effect of 10 µM, used in ORd simulation

hERG (KV11.1), sequence (Q12809 whole entry): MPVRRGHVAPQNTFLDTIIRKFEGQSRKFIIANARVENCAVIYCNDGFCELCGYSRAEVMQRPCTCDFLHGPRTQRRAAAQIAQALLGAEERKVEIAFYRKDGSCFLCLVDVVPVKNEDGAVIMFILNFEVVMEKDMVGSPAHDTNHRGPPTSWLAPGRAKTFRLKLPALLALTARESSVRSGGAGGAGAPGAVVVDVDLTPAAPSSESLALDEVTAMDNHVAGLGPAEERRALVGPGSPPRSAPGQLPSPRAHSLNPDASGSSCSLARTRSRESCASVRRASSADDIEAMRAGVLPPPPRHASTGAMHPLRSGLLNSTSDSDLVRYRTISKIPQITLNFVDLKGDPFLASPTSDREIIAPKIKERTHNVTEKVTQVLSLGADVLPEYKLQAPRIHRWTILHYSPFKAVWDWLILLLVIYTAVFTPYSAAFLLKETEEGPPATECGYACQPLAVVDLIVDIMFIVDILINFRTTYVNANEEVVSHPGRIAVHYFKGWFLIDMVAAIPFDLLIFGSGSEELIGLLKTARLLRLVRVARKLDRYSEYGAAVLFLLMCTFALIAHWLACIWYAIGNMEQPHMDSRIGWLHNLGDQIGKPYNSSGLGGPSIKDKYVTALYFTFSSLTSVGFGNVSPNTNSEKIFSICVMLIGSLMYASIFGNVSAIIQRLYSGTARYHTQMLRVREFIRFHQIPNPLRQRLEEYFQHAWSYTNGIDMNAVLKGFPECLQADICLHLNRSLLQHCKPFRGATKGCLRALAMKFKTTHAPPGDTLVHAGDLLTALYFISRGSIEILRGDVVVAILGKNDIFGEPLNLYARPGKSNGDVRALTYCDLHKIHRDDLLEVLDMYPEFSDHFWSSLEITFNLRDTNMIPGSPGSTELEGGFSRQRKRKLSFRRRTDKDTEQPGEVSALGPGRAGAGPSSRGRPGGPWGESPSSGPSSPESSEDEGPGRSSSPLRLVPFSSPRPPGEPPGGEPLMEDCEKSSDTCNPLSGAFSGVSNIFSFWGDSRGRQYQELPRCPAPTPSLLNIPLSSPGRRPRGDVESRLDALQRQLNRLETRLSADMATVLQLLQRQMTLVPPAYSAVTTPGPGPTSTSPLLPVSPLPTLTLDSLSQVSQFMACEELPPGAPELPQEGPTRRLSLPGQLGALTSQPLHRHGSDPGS
T1 sequence (P21554 whole entry): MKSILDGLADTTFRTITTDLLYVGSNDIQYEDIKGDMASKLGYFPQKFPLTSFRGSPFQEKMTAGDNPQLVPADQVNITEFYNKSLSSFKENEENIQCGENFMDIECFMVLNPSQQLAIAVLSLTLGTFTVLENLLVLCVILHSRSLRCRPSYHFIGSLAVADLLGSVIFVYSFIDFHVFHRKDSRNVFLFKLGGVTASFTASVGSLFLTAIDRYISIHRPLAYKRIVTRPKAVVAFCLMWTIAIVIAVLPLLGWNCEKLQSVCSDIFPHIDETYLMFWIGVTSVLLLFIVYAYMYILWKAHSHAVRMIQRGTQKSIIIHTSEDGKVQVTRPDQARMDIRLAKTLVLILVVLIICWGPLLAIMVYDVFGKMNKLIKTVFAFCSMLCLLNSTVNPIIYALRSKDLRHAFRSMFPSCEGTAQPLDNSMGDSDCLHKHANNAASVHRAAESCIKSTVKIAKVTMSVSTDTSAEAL
KV7.1/KCNE1, sequence (P51787 whole entry): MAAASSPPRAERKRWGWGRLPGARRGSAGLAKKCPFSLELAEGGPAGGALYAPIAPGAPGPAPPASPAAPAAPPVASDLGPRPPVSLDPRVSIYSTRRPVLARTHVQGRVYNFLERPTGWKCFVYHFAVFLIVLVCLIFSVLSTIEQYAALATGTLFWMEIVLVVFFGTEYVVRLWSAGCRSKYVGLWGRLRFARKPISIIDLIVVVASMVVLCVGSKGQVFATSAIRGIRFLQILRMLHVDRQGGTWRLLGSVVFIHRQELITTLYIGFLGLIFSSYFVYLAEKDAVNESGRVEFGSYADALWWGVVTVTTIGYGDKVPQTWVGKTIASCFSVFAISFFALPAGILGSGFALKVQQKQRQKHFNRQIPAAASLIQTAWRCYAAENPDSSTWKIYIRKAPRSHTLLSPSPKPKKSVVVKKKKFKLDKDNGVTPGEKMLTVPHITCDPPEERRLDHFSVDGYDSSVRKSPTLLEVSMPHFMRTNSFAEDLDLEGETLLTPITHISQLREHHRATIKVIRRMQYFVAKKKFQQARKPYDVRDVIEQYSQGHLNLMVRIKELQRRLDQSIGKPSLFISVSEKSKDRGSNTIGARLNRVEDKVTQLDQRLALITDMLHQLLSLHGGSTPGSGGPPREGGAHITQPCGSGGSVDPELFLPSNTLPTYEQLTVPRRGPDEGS

| SMILES | pEC50 (human CB1 receptor) | CB1 receptor Efficacy Emax (human CB1 receptor) | hERG inhibition (in words) (hERG [1]) | pIC50 (hERG [1]; read-out: hERG IC50, HEK293 cells, 37 °C) | pIC50 (KV7.1/KCNE1) | Gmax effect on hERG versus KV7.1/KCNE1 (in words) (KV7.1/KCNE1; 10 µM, both channels by APC) | KV7.1/KCNE1 channel Efficacy (max reduction in Gmax) Gmin (KV7.1/KCNE1) | pIC50 (hERG (KV11.1)) | hERG channel Efficacy (max reduction in Gmax) Gmin, marked ? (hERG (KV11.1); ? Unreliable values (fit failed QC, extrapolated)) | effect on Gmax of hERG (in words) (hERG (KV11.1); APC concentration-response, 1.11 to 30 µM) | QT interval (in words) [2] | effect on KV7.1/KCNE1 (in words) (KV7.1/KCNE1; APC) | remaining IKs (KV7.1/KCNE1 Gmax) (KV7.1/KCNE1; [4]) | hERG channel Efficacy (max reduction in Gmax) Gmin (hERG (KV11.1); best fit, 1 = no reduction of Gmax, 0 = complete reduction, APC, 22 °C) | remaining IKr (hERG Gmax) (hERG (KV11.1); [4]) | hERG inhibition (in words) (hERG [3]) | pIC50 (hERG [3]; read-out: in vitro hERG IC50, test pulse 1 s) |
| --- | --- | --- | --- | --- | --- | --- | --- | --- | --- | --- | --- | --- | --- | --- | --- | --- | --- |
| O=C(NC12CC3CC(CC(C3)C1)C2)c1nn(CCCCCF)c2ccccc12 [5F-APINACA] | 7.78 | 102 % JWH-018 | inhibit hERG | 5.66 | 4.45 | only on KV7.1/KCNE1 | 0 | < 4.00 | 0.00 | inhibitory effects on Gmax | – | – | – | – | – | – | – |
| CCCCCn1ccc(C(=O)c2cccc3ccccc23)c1 [JWH-030] | 6.54 | 76.5 % JWH-018 | – | – | 4.91 | – | 0 | 4.64 | – | – | prolongs the QT interval in rats | largest reduction in Gmax | 49% | 0.00 | 74% | inhibits the voltage-gated potassium channel hERG | 4.05 |
